Test results: publication PMC4957090, “A novel allele of L-galactono-1,4-lactone dehydrogenase is associated with enhanced drought tolerance through affecting stomatal aperture in common wheat” (Scientific Reports, 2016)

How the values were obtained:
TaGLDH-D1 = target: T1, TaGLDH-D1 (Triticum aestivum, UniProt W5FUB4); assay: cytochrome c reduction, absorbance at […] nm, crude mitochondrial fraction; assay type: biochemical; settings: 4 μM L-GalL, 60 μM cytochrome c, 50 mM Tris-HCl pH 8.0, 0.15% Triton X-100; against PEBV:GUS control
T1 construct: gene LOC123120310; crude mitochondrial fraction
T1 sequence (W5FUB4 entry or part of it): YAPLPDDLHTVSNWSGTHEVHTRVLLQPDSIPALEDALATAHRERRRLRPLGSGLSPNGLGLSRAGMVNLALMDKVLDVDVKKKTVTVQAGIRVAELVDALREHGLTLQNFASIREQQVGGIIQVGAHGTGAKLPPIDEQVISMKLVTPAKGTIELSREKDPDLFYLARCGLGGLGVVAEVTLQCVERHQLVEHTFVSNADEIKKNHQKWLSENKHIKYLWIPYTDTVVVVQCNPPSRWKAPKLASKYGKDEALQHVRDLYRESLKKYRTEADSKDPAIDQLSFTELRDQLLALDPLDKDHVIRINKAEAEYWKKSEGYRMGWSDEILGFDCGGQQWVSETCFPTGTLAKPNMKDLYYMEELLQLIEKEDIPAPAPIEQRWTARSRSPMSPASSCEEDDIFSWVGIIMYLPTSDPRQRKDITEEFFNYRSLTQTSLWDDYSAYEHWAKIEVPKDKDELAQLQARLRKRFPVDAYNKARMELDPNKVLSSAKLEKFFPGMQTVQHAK

TaGLDH-B1 = target: T2, TaGLDH-B1 (Triticum aestivum, UniProt W5FJN8); assay: as above; assay type: biochemical; settings: 4 μM L-GalL, 60 μM cytochrome c, 50 mM Tris-HCl pH 8.0, 0.15% Triton X-100; against PEBV:GUS control
T2 construct: gene LOC123111215; crude mitochondrial fraction
T2 sequence (W5FJN8 entry or part of it): as the sequence (W5FUB4 entry or part of it) above, with K133R, R158T, A241T, H256Y, L292I, C395S counted along it

purified protein = substrate: O=C1O[C@H]([C@@H](O)CO)[C@@H](O)[C@@H]1O; assay: purified protein; assay type: biochemical, Triticum aestivum; settings: 60 μM cytochrome c, 25 mM Tris-HCl pH 8.0, 25 mM NaCl

For `O=C1O[C@H]([C@@H](O)CO)[C@@H](O)[C@@H]1O` [L-galactono-1,4-lactone], the “total GLDH activity” value (TaGLDH-D1) was “GLDH activity level was significantly higher in the leaves infected by PEBV:A1, PEBV:B1 or PEBV:D1” and the “total GLDH activity” value (TaGLDH-B1) was “GLDH activity level was significantly higher in the leaves infected by PEBV:A1, PEBV:B1 or PEBV:D1”.

B1: TaGLDH-A1a (wild-type allele of TaGLDH-A1) (Triticum aestivum; DEL501-501) (protein)
chain: YAPLPDDLHTVSNWSGTHEVHTRVLLQPDSIPALEDALATAHRERRRLRPLGSGLSPNGLGLSRAGMVNLALMDKVLDVDVKKKTVTVQAGIRVAELVDALSKHGLTLQNFASIREQQVGGIIQVGAHGTGARLPPIDEQVISMKLVTPAKGTIELSREKNPDLFYLARCGLGGLGVVAEVTLQCVERHQLVEHTFVSNADEIKKNHQNWLSENKHIKYLWIPYTDTVVVVQCNPPSRWKTPKLASKYVKDEALQHVRDLYRESLKKYRTEADSKDPAIDQLSFTELRDQLLALDPLDKDHVIRINKAEAEYWKKSEGYRMCWSDEILGFDCGGQQWVSETCFPTGTLAKPNMKDLYYMEELLQLIEEEDIPAPAPIEQRWTAHSRSPMSPASSSEEDDIFSWVGIIMYLPTSDPRQRKDITEFFNYRSLTQTSLWDDYSAYEHWAKIEVPKDKDELAQLQARLRKRFPVDAYNKARMELDPNKVLSSAKLEKFFPGMQTVQHAR
notes: without first 78 residues (putative mitochondrial targeting peptide), N-terminal His tag, pET-30a, E. coli
In the case of B1, the Km (purified protein; natural allele TaGLDH-A1b (Glu501 absent), cDNA from cv. Kashibaipi) is reported as 181.0 ± 67.1 µM.

B2: TaGLDH-A1a (wild-type allele of TaGLDH-A1) (Triticum aestivum) (protein)
chain: YAPLPDDLHTVSNWSGTHEVHTRVLLQPDSIPALEDALATAHRERRRLRPLGSGLSPNGLGLSRAGMVNLALMDKVLDVDVKKKTVTVQAGIRVAELVDALSKHGLTLQNFASIREQQVGGIIQVGAHGTGARLPPIDEQVISMKLVTPAKGTIELSREKNPDLFYLARCGLGGLGVVAEVTLQCVERHQLVEHTFVSNADEIKKNHQNWLSENKHIKYLWIPYTDTVVVVQCNPPSRWKTPKLASKYVKDEALQHVRDLYRESLKKYRTEADSKDPAIDQLSFTELRDQLLALDPLDKDHVIRINKAEAEYWKKSEGYRMCWSDEILGFDCGGQQWVSETCFPTGTLAKPNMKDLYYMEELLQLIEEEDIPAPAPIEQRWTAHSRSPMSPASSSEEDDIFSWVGIIMYLPTSDPRQRKDITEEFFNYRSLTQTSLWDDYSAYEHWAKIEVPKDKDELAQLQARLRKRFPVDAYNKARMELDPNKVLSSAKLEKFFPGMQTVQHAR
notes: as for B1
With B2 the Km (purified protein) was 61.0 ± 5.4 µM.
